# Assays:
# [1] = system: chimeric receptor cH2R/MC3R-3i; settings: chimeric cH2R/MC3R-3i, Hepa cells
# Description: (§1) Chimeric Receptor. […] The chimeric receptor (cH2R/MC3R-3i) was constructed by cassette mutation at the junction of the fifth and sixth transmembrane domains of cH2R. Six PCR primers were used to generate three DNA fragments which were subsequently ligated together. The three PCR-generated fragments consisted of 1) the 5' coding region of the cH2R receptor beginning just prior to the ATG codon and ending with the 3' end of the fifth transmembrane domain; 2) the portion of the MC3 receptor gene encoding its third intracytoplasmic loop; and 3) the 3' coding region of the cH2R beginning with that segment encoding the 5' end of the sixth transmembrane domain and ending slightly past the termination codon. The DNA fragments were cut with appropriate restriction enzymes at pre-engineered restriction sites designed so that the three fragments could be assembled together in only the correct alignment. Restriction sites were also designed to facilitate subcloning the chimeric receptor DNA into CMVneo and the sequencing vector M13. The nucleotide sequence of the CMVneo cH2R/MC3R-3i construct was confirmed prior to expression in Hepa cells.
# (§2) cAMP Assays. A cAMP assay kit purchased from Amersham (TRK 432, Arlington Heights, Ill.) was employed. Transfected cells were grown to confluence in 12-well (2.4×1.7 cm) tissue culture plates. […]
# [2] = target: T1, wild-type H2-histamine receptor (cH2R) (Canis lupus familiaris, UniProt P17124); settings: Hepa cells
# T1 sequence (P17124 whole entry): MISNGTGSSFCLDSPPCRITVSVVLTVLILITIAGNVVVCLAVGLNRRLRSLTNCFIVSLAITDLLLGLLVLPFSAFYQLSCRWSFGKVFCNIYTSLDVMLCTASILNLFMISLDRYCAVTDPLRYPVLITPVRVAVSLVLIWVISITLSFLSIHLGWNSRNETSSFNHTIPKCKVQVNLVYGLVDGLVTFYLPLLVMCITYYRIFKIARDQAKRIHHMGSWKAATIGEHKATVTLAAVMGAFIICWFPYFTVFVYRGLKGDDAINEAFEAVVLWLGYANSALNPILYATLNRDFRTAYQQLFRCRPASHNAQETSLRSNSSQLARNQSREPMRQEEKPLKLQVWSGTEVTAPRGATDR
# Description: as §1, §2
# [3] = target: T1, wild-type H2-histamine receptor (cH2R); settings: Hepa cells; remark: listed apart in the source
# Description: as §1
# (§3) Inositol Phosphate (IP) Assays.
# [4] = system: chimeric receptor cH2R/MC3R-3i; assay: [3H] IP production in Hepa cells transfected with chimeric cH2R/hMC3R-3i; assay type: cell-based; settings: chimeric cH2R/MC3R-3i, Hepa cells
# Description: as §1, §3
compound,measurement,setting,value
NCCc1c[nH]cn1 [histamine],cAMP dose-response (in words),[1],monophasic cAMP dose-response curve
same,cAMP dose-response (in words),[2],monophasic dose-dependent increases in both cAMP and [^3 H]-IP production
same,[3H]-IP production dose-response (in words),[3],monophasic dose-dependent increases in both cAMP and [^3 H]-IP production
same,[3H]-IP production dose-response (in words),[4],biphasic dose-response curve for [^3 H]-IP production

# From patent publication US6117975A, “Melanocortin receptor polypeptides MC-3, MC-4, and MC-5” (The Regents of the University of Michigan, priority 1996, dated 2000)
